According to PubChem BioAssay (NCI):
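Following 48 hours of exposure in 96-well plates, responses at five concentrations were used to interpolate endpoints linearly. TGI denotes the concentration required for complete inhibition of growth.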

How the values were obtained:
Assay in all cases: NCI anticancer screen, dose series, 48 h
SK-OV-3 ovarian = system: SK-OV-3 ovarian
U251 CNS = system: U251 CNS
MOLT-4 leukemia = system: MOLT-4 leukemia
SK-MEL-28 melanoma = system: SK-MEL-28 melanoma
HCT-116 colon = system: HCT-116 colon
IGROV1 ovarian = system: IGROV1 ovarian
HOP-92 NSCLC = system: HOP-92 NSCLC
786-0 renal = system: 786-0 renal
MDA-MB-231 breast = system: MDA-MB-231 breast
SN12C renal = system: SN12C renal
SK-MEL-5 melanoma = system: SK-MEL-5 melanoma
SF-268 CNS = system: SF-268 CNS
MALME-3M melanoma = system: MALME-3M melanoma

Row | Compound | TGI (SK-OV-3 ovarian) [µM] | TGI (U251 CNS) [µM] | TGI (MOLT-4 leukemia) [µM] | TGI (SK-MEL-28 melanoma) [µM] | TGI (HCT-116 colon) [µM] | TGI (IGROV1 ovarian) [µM] | TGI (HOP-92 NSCLC) [µM] | TGI (786-0 renal) [µM] | TGI (MDA-MB-231 breast) [µM] | TGI (SN12C renal) [µM] | TGI (SK-MEL-5 melanoma) [µM] | TGI (SF-268 CNS) [µM] | TGI (MALME-3M melanoma) [µM]
1 | CC12C3C4C1C1C2C3C41CO (stereo not given) | > 100 | > 100 | > 100 | > 100 | > 100 | > 100 | > 100 | > 100 | > 100 | > 100 | > 100 | – | –
2 | O=C1CSC(c2c[nH]c3ccccc23)N1c1ccc(Cl)cc1 (stereo not given) | > 100 | > 100 | > 100 | > 100 | > 100 | > 100 | > 100 | > 100 | > 100 | > 100 | > 100 | > 100 | –
3 | CC1(c2sccc2Cl)CC(c2sccc2Cl)=C(C#N)C(=C(C#N)C#N)N1 (stereo not given) | 31.5 | 33.8 | > 100 | 34.8 | 32.2 | 42.4 | – | 34.5 | 42.9 | 42.9 | 33.3 | 38.5 | 32.8
4 | O=C(Nc1ccc(Cl)cc1C(F)(F)F)C(=O)C1CCCS1(=O)=O (stereo not given) | – | > 100 | > 100 | > 100 | > 100 | > 10 | > 10 | > 100 | – | > 100 | > 100 | > 100 | > 100
5 | Cc1c[n+]2c3ccccc3c3ccccc3c2s1 | > 71.4 | 12.3 | 13.4 | 18 | > 70.1 | > 100 | 47.4 | > 100 | – | 15.5 | 17.9 | 3.27 | 7.87
6 | N#CCc1c(-c2ccccc2)n(S(=O)(=O)c2ccccc2)c2ccccc12 | – | > 100 | > 100 | > 100 | > 100 | > 100 | > 100 | > 100 | – | – | > 100 | > 100 | > 100
7 | CCOC(=O)CC1COc2ccc3c(c21)OCO3 (stereo not given) | > 100 | > 100 | > 100 | > 100 | > 100 | > 100 | > 100 | > 100 | – | > 100 | > 100 | – | > 100
8 | COc1cc2c3cc1Oc1c(O)c(OC)cc4c1C(Cc1ccc(O)c(c1)Oc1ccc(cc1)CC3N(C)CC2)N(C)CC4 (stereo not given) | 40.1 | 27.3 | 30.8 | 32.8 | 22.5 | 56.1 | 24.3 | 25.9 | – | 28.6 | 32.9 | 31.9 | 32.8
9 | S=C(NCCc1ccccn1)N/N=C/c1ccccn1 | > 100 | > 100 | – | > 100 | < 0.01 | 0.634 | – | > 89.7 | – | 13.3 | 2.69 | > 100 | > 56.5
10 | Clc1cc2nn(C3CCCCO3)nc2cc1Cl (stereo not given) | > 100 | > 100 | > 100 | – | > 100 | > 100 | – | > 100 | > 100 | > 100 | > 100 | – | > 100
11 | COC(=O)C1CCC(=O)N1C(c1cc(OC)c(OC)c(OC)c1)c1cc(OC)c(OC)c(OC)c1 (stereo not given) | > 100 | > 100 | > 100 | > 100 | > 100 | > 100 | > 100 | > 100 | > 100 | > 100 | – | > 100 | –
12 | C=CCNC(=S)N1CC(C)C(=O)Nc2cc(Cl)ccc21 (stereo not given) | > 100 | > 100 | > 100 | > 100 | > 100 | > 100 | > 100 | > 100 | – | > 100 | > 100 | > 100 | > 100
13 | COc1ccccc1Cc1ccc(C2C=CC3(CC(=O)C=C3C)C(=O)C2)o1 (stereo not given) | – | 30.6 | 34.1 | > 100 | 89.6 | > 100 | 75.6 | 41.9 | 50.1 | 58.5 | 29 | 64.9 | 47.5
14 | COC(=O)c1c(C(=O)OC)c2ccccn2c1-c1cc(OC)c(Br)c(=O)o1 | > 100 | – | > 100 | > 100 | > 100 | > 100 | – | > 100 | > 100 | > 100 | > 100 | > 100 | > 100
15 | O=C(O)/C(Cl)=C(\Cl)C(=O)c1ccccc1 | > 100 | > 100 | > 100 | > 100 | > 100 | > 100 | > 100 | > 100 | – | > 100 | > 100 | > 100 | > 100
16 | CC(=O)Nc1ccc2nc(-c3ccccn3)c(-c3ccccn3)nc2c1 | – | > 100 | > 100 | > 100 | – | > 100 | > 100 | > 100 | > 100 | > 100 | > 100 | > 100 | > 100
17 | COC1CCON1C(=O)c1ccccc1 (stereo not given) | > 10 | – | > 10 | > 10 | > 10 | > 10 | – | > 10 | > 10 | > 10 | > 10 | > 10 | > 10
18 | CCC(C)C(N)C(=O)NC(CC(N)=O)C(=O)NC(CC(C)C)C(=O)NC(CCCCN)C(=O)NC(C)C(=O)NC(CC(C)C)C(=O)NC(C)C(=O)NC(C)C(=O)NC(CC(C)C)C(=O)NC(C)C(=O)NC(CCCCN)C(=O)NC(CCCCN)C(=O)NC(C(=O)NC(CC(C)C)C(N)=O)C(C)CC (stereo not given) | 33.7 | 30.9 | 38.5 | 22 | 29 | 34.4 | 5.38 | 13.7 | – | 26.4 | 14.3 | 14.7 | 10.7
19 | C1CSCCSCCCSC2CCCCC2SC1 (stereo not given) | > 100 | > 100 | > 100 | > 100 | > 100 | > 100 | > 100 | > 100 | > 100 | > 100 | > 100 | > 100 | –
